Numbered stars: 1 amine (or outer) side, 2 acyl side, 3 side chain; on linkers, the order of the positions; unused ones are H or OH. Square brackets hold non-standard residues; d marks the D form. Side chains are listed from the residue outwards. Peptide text beside a SMILES is read from it. * marks the point of attachment. Undecanoyl(11-OPh(4-COOH)) = O=C(O)c1ccc(OCCCCCCCCCCC(=O)*)cc1; γGlu = O=C(O)[C@H](CCC(=O)[*:2])N[*:1]; εLys = N[C@@H](CCCCN[*:1])C(=O)[*:2]; Aib = CC(C)(N)C(=O)O
Assays:
human GLP-1 receptor [1] = molecular target: T1, human GLP-1 receptor (Homo sapiens, UniProt P43220); assay: In vitro potency (CRE luciferase; whole cells); type: cell-based; parameters: EC50/pM (ratio 1% HSA/0% HSA): unit not given here; conditions: for EC50/pM (ratio 1% HSA/0% HSA): ratio of EC50 at 1% HSA to EC50 at 0% HSA
T1 construct: expressed in transfected cells; host or cells: BHK cells, clone FCW467-12A/KZ10-1 (parent line BHKTS13), further transfected with CRE luciferase
Outline: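 Reporter: CRE-luciferase in BHK cells stably expressing human GLP-1R, 5×10^3 cells/well; compounds tested in buffer containing 0% or 1% HSA.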

human GLP-1 receptor [2] = molecular target: T1, human GLP-1 receptor; assay: GLP-1 receptor binding (SPA, displacement of 125I-GLP-1)
Outline: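 Tracer [125I]-GLP-1(7-36)NH2 at 0.06 nM final competed on hamster stably transfected cell membranes captured by WGA SPA beads; 120 min, 30 °C, scintillation count.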

[3] = Pharmacokinetic (PK) study in rat; conditions: male, Sprague Dawley, in vivo, iv, 6 nmol/kg
[4] = Receptor binding affinity IC50 (low HSA), 0.001% HSA (low albumin)

T1 sequence (P43220 24-463): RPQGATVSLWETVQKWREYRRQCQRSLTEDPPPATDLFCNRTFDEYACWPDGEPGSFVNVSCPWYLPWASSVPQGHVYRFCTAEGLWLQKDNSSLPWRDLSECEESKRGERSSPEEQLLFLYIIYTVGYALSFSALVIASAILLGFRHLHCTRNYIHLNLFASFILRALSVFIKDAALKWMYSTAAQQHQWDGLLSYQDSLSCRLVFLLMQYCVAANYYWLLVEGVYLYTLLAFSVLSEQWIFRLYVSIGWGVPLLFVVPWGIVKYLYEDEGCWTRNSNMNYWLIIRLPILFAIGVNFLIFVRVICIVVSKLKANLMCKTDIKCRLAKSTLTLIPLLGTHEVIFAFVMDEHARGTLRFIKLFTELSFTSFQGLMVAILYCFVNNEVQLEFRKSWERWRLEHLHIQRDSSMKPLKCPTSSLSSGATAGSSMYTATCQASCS

Structure (SMILES)	EC50 (human GLP-1 receptor [1]; In vitro potency (CRE luciferase) EC50 (1% HSA), BHK cells, 1% HSA)	EC50/pM (ratio 1% HSA/0% HSA) (human GLP-1 receptor [1])	IC50 (human GLP-1 receptor [2]; Receptor binding affinity IC50 (high HSA), 2.0% HSA (high albumin))	IC50 (human GLP-1 receptor [2]; [4])	half-life [3]
CC[C@H](C)[C@H](NC(=O)[C@H](Cc1ccccc1)NC(=O)[C@H](CCC(=O)O)NC(=O)[C@H](CCCCNC(=O)[C@@H](N)CCCCNC(=O)[C@@H](N)CCCCNC(=O)CC[C@H](NC(=O)CCCCCCCCCCCOc1ccc(C(=O)O)cc1)C(=O)O)NC(=O)[C@H](C)NC(=O)[C@H](C)NC(=O)[C@H](CCC(N)=O)NC(=O)CNC(=O)[C@H](CCC(=O)O)NC(=O)[C@H](CC(C)C)NC(=O)[C@H](Cc1ccc(O)cc1)NC(=O)[C@H](CO)NC(=O)[C@H](CO)NC(=O)[C@@H](NC(=O)[C@H](CC(=O)O)NC(=O)[C@H](CO)NC(=O)[C@@H](NC(=O)[C@H](Cc1ccccc1)NC(=O)[C@@H](NC(=O)CNC(=O)[C@H](CCC(=O)O)NC(=O)C(C)(C)NC(=O)[C@@H](N)Cc1c[nH]cn1)[C@@H](C)O)[C@@H](C)O)C(C)C)C(=O)N[C@@H](C)C(=O)N[C@@H](Cc1c[nH]cn1)C(=O)N[C@@H](CC(C)C)C(=O)N[C@H](C(=O)N[C@@H](CCC(N)=O)C(=O)NCC(=O)N[C@@H](CCCNC(=N)N)C(=O)N[C@@H](CCCCNC(=O)[C@@H](N)CCCCNC(=O)[C@@H](N)CCCCNC(=O)CC[C@H](NC(=O)CCCCCCCCCCCOc1ccc(C(=O)O)cc1)C(=O)O)C(=O)O)C(C)C [Example 4, N^ε26-[(2S)-2-amino-6-[[(2S)-2-amino-6-[[(4S)-4-carboxy-4-[12-(4-carboxyphenoxy)dodecanoylamino]butanoyl]amino]hexanoyl]amino]hexanoyl], N^ε37-[(2S)-2-amino-6-[[(2S)-2-amino-6-[[(4S)-4-carboxy-4-[12-(4-carboxyphenoxy)dodecanoylamino]butanoyl]amino]hexanoyl]amino]hexanoyl]-[Aib^8,His^31,Gln^34,Lys^37]-GLP-1-(7-37)-peptide]	1.61 nM	307	172 nM	0.48 nM	17 h
CC[C@H](C)[C@H](NC(=O)[C@H](Cc1ccccc1)NC(=O)[C@H](CCC(=O)O)NC(=O)[C@H](CCCCNC(=O)[C@@H](N)CCCCNC(=O)CC[C@H](NC(=O)CC[C@H](NC(=O)CCCCCCCCCCOc1ccc(C(=O)O)cc1)C(=O)O)C(=O)O)NC(=O)[C@H](C)NC(=O)[C@H](C)NC(=O)[C@H](CCC(N)=O)NC(=O)[C@H](CCC(=O)O)NC(=O)[C@H](CCC(=O)O)NC(=O)[C@H](CC(C)C)NC(=O)[C@H](Cc1ccc(O)cc1)NC(=O)[C@H](CO)NC(=O)[C@H](CO)NC(=O)[C@@H](NC(=O)[C@H](CC(=O)O)NC(=O)[C@H](CO)NC(=O)[C@@H](NC(=O)[C@H](Cc1ccccc1)NC(=O)[C@@H](NC(=O)CNC(=O)[C@H](CCC(=O)O)NC(=O)C(C)(C)NC(=O)[C@@H](N)Cc1c[nH]cn1)[C@@H](C)O)[C@@H](C)O)C(C)C)C(=O)N[C@@H](CCC(=O)O)C(=O)N[C@@H](Cc1c[nH]c2ccccc12)C(=O)N[C@@H](CC(C)C)C(=O)N[C@H](C(=O)N[C@@H](CCCNC(=N)N)C(=O)NCC(=O)N[C@@H](CCCNC(=N)N)C(=O)N[C@@H](CCCCNC(=O)[C@@H](N)CCCCNC(=O)CC[C@H](NC(=O)CC[C@H](NC(=O)CCCCCCCCCCOc1ccc(C(=O)O)cc1)C(=O)O)C(=O)O)C(=O)N[C@@H](CCC(=O)O)C(=O)O)C(C)C [Example 42, N^ε26-[(2S)-2-amino-6-[[(4S)-4-carboxy-4-[[(4S)-4-carboxy-4-[11-(4-carboxyphenoxy)undecanoylamino]butanoyl]amino]butanoyl]amino]hexanoyl], N^ε37-[(2S)-2-amino-6-[[(4S)-4-carboxy-4-[[(4S)-4-carboxy-4-[11-(4-carboxyphenoxy)undecanoylamino]butanoyl]amino]butanoyl]amino]hexanoyl]-[Aib^8,Glu^22,Glu^30,Arg^34, Lys^37]-GLP-1-(7-37)-peptidyl-Glu] (H-H[Aib]EGTFTSDVSSYLEEQAAK([εLys-γGlu-γGlu-Undecanoyl(11-OPh(4-COOH))])EFIEWLVRGRK([εLys-γGlu-γGlu-Undecanoyl(11-OPh(4-COOH))])E-OH; N-terminus and C-terminus assumed)	–	251	–	0.02 nM	–

— patent US10604554B2, “Double-acylated GLP-1 derivatives” (Novo Nordisk A/S, priority 2012, dated 2020)
